Reference: patent US9265773B2, “Tetracyclic heterocycle compounds and methods of use thereof for the treatment of viral diseases” (priority 2011, dated 2016)

Experiments:
HCV replicon genotype 1b = assay: microbe, parasite or virus in culture; assay type: cell-based; details: genotype 1b replicon cells, incubated 96 hours, NS3/4A ELISA readout
HCV replicon genotype 1a = assay: microbe, parasite or virus in culture; assay type: cell-based; details: genotype 1a replicon cells, incubated 96 hours, NS3/4A ELISA readout

Row | Structure (SMILES) | IC50 (HCV replicon genotype 1b; Hepatitis C virus, 96 h) | IC50 (HCV replicon genotype 1a; Hepatitis C virus, 96 h) | IC50 (HCV replicon genotype 1b) | IC50 (HCV replicon genotype 1a)
1 | CNC(=O)c1c(-c2ccc(F)cc2)oc2cc(N(C)S(C)(=O)=O)c(-c3ncc4c(n3)-c3cc5c(F)cccc5n3CO4)cc12 [Compound 5] | 2 nM | 1 nM |  | 
2 | CNC(=O)c1c(-c2ccc(F)cc2)oc2cc(N(C)S(C)(=O)=O)c(-c3ccc4c(c3)-c3cc5ccccc5n3CC(NCCO)CO4)cc12 (centres unmarked) [Compound 85] | 7.7 nM | 13 nM |  | 
3 | CNC(=O)c1c(-c2ccc(F)cc2)oc2cc(N(C)S(C)(=O)=O)c(-c3ccc4c(n3)-c3c(C(O)C(=O)O)c5c(F)cccc5n3CO4)cc12 (centres unmarked) [Compound 207, 2-(11-fluoro-2-(2-(4-fluorophenyl) -3-(methylcarbamoyl)-6-(N-methylmethylsulfonamido)benzofuran-5-yl)-6H-pyrido[2′,3′:5,6][1,3]oxazino[3,4-a]indol-12-yl)-2-hydroxyacetic acid] | 2.1 nM | 3.3 nM |  | 
4 | CNC(=O)c1c(-c2ccc(F)cc2)oc2cc(N3CCOC3=O)c(-c3ccc4c(n3)-c3cc5cc(F)ccc5n3CO4)cc12 [Compound 174] | 4.7 nM | 13 nM |  | 
5 | CNC(=O)c1c(-c2ccc(F)cc2)oc2cc(N(C)S(C)(=O)=O)c(-c3ccc4c(n3)-c3nc5c(F)cccc5n3CO4)cc12 [Compound 139] | 1.9 nM | 1.9 nM |  | 
6 | CNC(=O)c1c(-c2ccc(F)cc2)oc2cc(N(C)S(C)(=O)=O)c(-c3cc4c(cn3)OCn3c-4cc4c(C#N)cccc43)cc12 [Compound 23] | 1.2 nM | 0.9 nM |  | 
7 | CNC(=O)c1c(-c2ccc(F)cc2)oc2cc(N(C)S(C)(=O)=O)c(-c3ccc4c(n3)-c3cc5c(F)cccc5n3C(c3ccccc3)O4)cc12 (centres unmarked) [Compound 51, 5-(11-fluoro-6-phenyl-6H-pyrido[2′,3′:5,6][1,3]oxazino[3,4-a]indol-2-yl)-2-(4-fluorophenyl)-N-methyl-6-(N-methylmethylsulfonamido)benzofuran-3-carboxamide] | 33 nM | 17 nM |  | 
8 | CCOC(=O)CNCC1Oc2ccc(-c3cc4c(C(=O)NC)c(-c5ccc(F)cc5)oc4cc3N(C)S(C)(=O)=O)nc2-c2cc3c(F)cccc3n21 (centres unmarked) [Compound 119] | 5.1 nM | 17 nM |  | 
9 | CNC(=O)c1c(-c2ccc(F)cc2)oc2cc(N(C)S(C)(=O)=O)c(-c3ccc4c(c3)-c3c(Cl)c5ccccc5n3C(C3CC3)O4)cc12 (centres unmarked) [Compound 131, 5-(12-chloro-6-cyclopropyl-6H-benzo[5,6][1,3]oxazino[3,4-a]indol-2-yl)-2-(4-fluorophenyl)-N-methyl-6-(N-methylmethylsulfonamido)benzofuran-3-carboxamide] | 50 nM | 79 nM |  | 
10 | CNC(=O)c1c(-c2ccc(F)cc2)oc2cc(N(C)S(C)(=O)=O)c(-c3ccc4c(n3)-c3[nH]c5cccc(F)c5c3C(c3cccs3)O4)cc12 (centres unmarked) [Compound 66, 5-(7-fluoro-6-(thiophen-2-yl)-6,11-dihydropyrido[2′,3′:5,6]pyrano[4,3-b]indol-2-yl)-2-(4-fluorophenyl)-N-methyl-6-(N-methylmethylsulfonamido)benzofuran-3-carboxamide] | 59 nM | 49 nM |  | 
11 | CNC(=O)c1c(-c2ccc(F)cc2)oc2cc(N(C)S(C)(=O)=O)c(-c3ccc4c(n3)-c3cc5c(F)cccc5n3C(CNC(C)=O)O4)cc12 (centres unmarked) [Compound 130] |  |  | 3 nM | 3 nM
12 | CNC(=O)c1c(-c2ccc(F)cc2)oc2cc(N(C)S(C)(=O)=O)c(-c3ccc4c(c3)-c3cc5cccnc5n3CO4)cc12 [Compound 49] | 1.7 nM | 0.6 nM |  | 
13 | CNC(=O)c1c(-c2ccc(F)cc2)oc2cc(N(C)S(C)(=O)=O)c(-c3ncc4c(n3)-c3cc5cc(F)ccc5n3CO4)cc12 [Compound 6] | 2.3 nM | 1.5 nM |  | 
14 | CNC(=O)c1c(-c2ccc(F)cc2)oc2cc(N(C)S(C)(=O)=O)c(-c3ccc4c(n3)-c3nc5ccccc5n3CO4)cc12 [Compound 136] | 2.9 nM | 3.5 nM |  | 
15 | CONC(=O)c1c(-c2ccc(F)cc2)oc2cc(N(C)S(C)(=O)=O)c(-c3ccc4c(n3)-c3cc5c(F)cccc5n3CO4)cc12 [Compound 153] | 4.9 nM | 2.5 nM |  | 
16 | CNC(=O)c1c(-c2ccc(F)cc2)oc2cc(N3CCCC3=O)c(-c3ccc4c(n3)-c3cc5cc(F)ccc5n3CO4)cc12 [Compound 169] | 5 nM | 14 nM |  | 
17 | CNC(=O)c1c(-c2ccc(F)cc2)oc2cc(N3CCCS3(=O)=O)c(-c3ccc4c(n3)-c3cc5c(F)cccc5n3CO4)cc12 [Compound 175, 6-(1,1-dioxidoisothiazolidin-2-yl)-5-(11-fluoro-6H-pyrido[2′,3′:5,6][1,3]oxazino[3,4-a]indol-2-yl)-2-(4-fluorophenyl)-N-methylbenzofuran-3-carboxamide] | 3.1 nM | 5.3 nM |  | 

Row | Structure (SMILES) | IC50 (HCV replicon genotype 1b; Hepatitis C virus, 96 h) | IC50 (HCV replicon genotype 1a; Hepatitis C virus, 96 h) | IC50 (HCV replicon genotype 1b) | IC50 (HCV replicon genotype 1a)
18 | CNC(=O)c1c(-c2ccc(F)cc2)oc2cc(N3CCOC3=O)c(-c3ccc4c(n3)-c3cc5c(F)cccc5n3CO4)cc12 [Compound 172, 5-(11-fluoro-6H-pyrido[2′,3′:5,6][1,3]oxazino[3,4-a]indol-2-yl)-2-(4-fluorophenyl)-N-methyl-6-(2-oxooxazolidin-3-yl)benzofuran-3-carboxamide] | 2.1 nM | 2.2 nM |  | 
19 | CNC(=O)c1c(-c2ccc(F)cc2)oc2cc(N(C)S(C)(=O)=O)c(-c3ccc4c(n3)-c3cc5c(F)cccc5n3C(C(=O)O)O4)cc12 (centres unmarked) [Compound 112] | 23 nM | 20 nM |  | 
20 | COC(=O)c1c(-c2ccc(F)cc2)oc2cc(N(C)S(C)(=O)=O)c(-c3ccc4c(n3)-c3cc5c(F)cccc5n3CO4)cc12 [Compound 150, methyl 5-(11-fluoro-6H-pyrido[2′,3′:5,6][1,3]oxazino[3,4-a]indol-2-yl)-2-(4-fluorophenyl)-6-(N-methylmethylsulfonamido)benzofuran-3-carboxylate] | 30 nM | 38 nM |  | 
21 | CNC(=O)c1c(-c2ccc(F)cc2)oc2cc(N(C)S(C)(=O)=O)c(-c3cc4c(cn3)OCn3c-4cc4c(F)cccc43)cc12 [Compound 16] | 2.3 nM | 2.1 nM |  | 
22 | CN(c1cc2oc(-c3ccc(F)cc3)c(C(=O)NC3CC3)c2cc1-c1ccc2c(n1)-c1cc3c(F)cccc3n1CO2)S(C)(=O)=O [Compound 157] | 11 nM | 7.6 nM |  | 
23 | CNC(=O)c1c(-c2ccc(F)cc2)oc2ccc(-c3ccc4c(n3)-c3cc5c(F)cccc5n3CO4)cc12 [Compound 162, 5-(11-fluoro-6H-pyrido[2′,3′:5,6][1,3]oxazino[3,4-a]indol-2-yl)-2-(4-fluorophenyl)-N-methylbenzofuran-3-carboxamide] | 18 nM | 29 nM |  | 
24 | CNC(=O)c1c(-c2ccc(F)cc2)oc2cc(N(C)S(C)(=O)=O)c(-c3ccc4c(c3)-c3[nH]c5ccccc5c3C(c3cccnc3)O4)cc12 (centres unmarked) [Compound 62] | 3.4 nM | 12 nM |  | 
25 | CNC(=O)c1c(-c2ccc(F)cc2)oc2cc(N(C)S(C)(=O)=O)c(-c3ccc4c(n3)-c3cc5c(F)cccc5n3C(CNC(=O)[C@@H](NC(=O)OC)C(C)C)O4)cc12 (some centres unmarked) [Compound 125] |  | 5.1 nM | 3.4 nM | 
26 | CNC(=O)c1c(-c2ccc(F)cc2)oc2cc(N(C)S(C)(=O)=O)c(-c3ccc4c(n3)-c3cc5c(F)c(F)ccc5n3CO4)cc12 [Compound 28] | 4.5 nM | 2.1 nM |  | 
27 | CNC(=O)c1c(-c2ccc(F)cc2)oc2cc(N(C)S(C)(=O)=O)c(-c3ccc4c(n3)-c3cc5c(F)cccc5n3C(CNC(=O)[C@@H](NC(=O)OC)C(C)C)O4)cc12 (some centres unmarked) [Compound 127] |  |  | 1.6 nM | 3.5 nM
28 | CNC(=O)c1c(-c2ccc(F)cc2)oc2cc(N(C)S(C)(=O)=O)c(-c3ccc4c(n3)-c3cc5c(F)cccc5n3C(CN(C)C)O4)cc12 (centres unmarked) [Compound 121, 5-(6-((dimethylamino)methyl)-11-fluoro-6H-pyrido[2′,3′:5,6][1,3]oxazino[3,4-a]indol-2-yl)-2-(4-fluorophenyl)-N-methyl-6-(N-methylmethylsulfonamido)benzofuran-3-carboxamide] | 7.5 nM | 3 nM |  | 
29 | CN(c1cc2oc(-c3ccc(F)cc3)c(-c3nnco3)c2cc1-c1ccc2c(n1)-c1cc3c(F)cccc3n1CO2)S(C)(=O)=O [Compound 159, N-(5-(11-fluoro-6H-pyrido[2′,3′:5,6][1,3]oxazino[3,4-a]indol-2-yl)-2-(4-fluorophenyl)-3-(1,3,4-oxadiazol-2-yl)benzofuran-6-yl)-N-methylmethanesulfonamide] | 22 nM | 11 nM |  | 
30 | CNC(=O)c1c(-c2ccc(F)cc2)oc2cc(N(C)S(C)(=O)=O)c(-c3ccc4c(n3)-c3cc5c(F)cccc5n3C(CNC(C)=O)O4)cc12 (centres unmarked) [Compound 129] |  |  | 2.1 nM | 1.7 nM
31 | COC(=O)C(=O)N(C)C(=O)c1c(-c2ccc(F)cc2)oc2cc(N(C)S(C)(=O)=O)c(-c3ccc4c(n3)-c3cc5c(F)cccc5n3CO4)cc12 [Compound 209, methyl 2-(5-(11-fluoro-6H-pyrido[2′,3′:5,6][1,3]oxazino[3,4-a]indol-2-yl)-2-(4-fluorophenyl)-N-methyl-6-(N-methylmethylsulfonamido)benzofuran-3-carboxamido)-2-oxoacetate] | 2.6 nM | 0.6 nM |  | 
32 | CNC(=O)c1c(-c2ccc(F)cc2)oc2cc(N(C)S(C)(=O)=O)c(-c3ccc4c(c3)-c3[nH]c5ccccc5c3C(c3ccccc3)O4)cc12 (centres unmarked) [Compound 63, 2-(4-fluorophenyl)-N-methyl-6-(N-methylmethylsulfonamido)-5-(6-phenyl-6,11-dihydrochromeno[4,3-b]indol-2-yl)benzofuran-3-carboxamide] | 83 nM | 92 nM |  | 
33 | CNC(=O)c1c(-c2ccc(F)cc2)oc2cc(N(C)S(C)(=O)=O)c(-c3ccc4c(n3)-c3cc5c(C(N)=O)cccc5n3CO4)cc12 [Compound 73, 2-(2-(4-fluorophenyl)-3-(methylcarbamoyl)-6-(N-methylmethylsulfonamido)benzofuran-5-yl)-6H-pyrido[2′,3′:5,6][1,3]oxazino[3,4-a]indole-11-carboxamide] | 36 nM | 625 nM |  | 
34 | CNC(=O)c1c(-c2ccc(F)cc2)oc2cc(N(C)S(C)(=O)=O)c(-c3ccc4c(n3)-c3cc5ncccc5n3CO4)cc12 [Compound 44] | 2.4 nM | 2.8 nM |  | 
